Experiment [1] deals with Prothrombin (Homo sapiens, UniProt P00734). Description: Thrombin 1536 HTS Dose Response Confirmation. [Related pubchem assays: 1046 (Thrombin 1536 HTS; hits were confirmed in this assay)]. It counts as functional.
The nature of experiment [2]: NIH3T3 cell viability loss – ATP luminescence, mouse fibroblasts, counter-screen, dose response (AID 2010).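 Further: cells exposed to compound for about 90 hours before reading.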 The format is functional, cell-based.
A short description of experiment [3]: Trypanosoma cruzi growth suppression in host cells – NIH3T3 host cells, beta-gal luminescence, confirmation (AID 2044).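 Further: intracellular parasites grown in NIH/3T3 mouse fibroblasts as host cells; luminescent beta-galactosidase reporter signal from transgenic T. cruzi replicating inside host cells; inhibitors lower the luminescence signal.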 It counts as functional, cell-based.
Experiment [4] has as its target T1, Acyl-homoserine lactone acylase PvdQ (Pseudomonas aeruginosa (strain LESB58), UniProt Q9I194).
T1 sequence (Q9I194 whole entry): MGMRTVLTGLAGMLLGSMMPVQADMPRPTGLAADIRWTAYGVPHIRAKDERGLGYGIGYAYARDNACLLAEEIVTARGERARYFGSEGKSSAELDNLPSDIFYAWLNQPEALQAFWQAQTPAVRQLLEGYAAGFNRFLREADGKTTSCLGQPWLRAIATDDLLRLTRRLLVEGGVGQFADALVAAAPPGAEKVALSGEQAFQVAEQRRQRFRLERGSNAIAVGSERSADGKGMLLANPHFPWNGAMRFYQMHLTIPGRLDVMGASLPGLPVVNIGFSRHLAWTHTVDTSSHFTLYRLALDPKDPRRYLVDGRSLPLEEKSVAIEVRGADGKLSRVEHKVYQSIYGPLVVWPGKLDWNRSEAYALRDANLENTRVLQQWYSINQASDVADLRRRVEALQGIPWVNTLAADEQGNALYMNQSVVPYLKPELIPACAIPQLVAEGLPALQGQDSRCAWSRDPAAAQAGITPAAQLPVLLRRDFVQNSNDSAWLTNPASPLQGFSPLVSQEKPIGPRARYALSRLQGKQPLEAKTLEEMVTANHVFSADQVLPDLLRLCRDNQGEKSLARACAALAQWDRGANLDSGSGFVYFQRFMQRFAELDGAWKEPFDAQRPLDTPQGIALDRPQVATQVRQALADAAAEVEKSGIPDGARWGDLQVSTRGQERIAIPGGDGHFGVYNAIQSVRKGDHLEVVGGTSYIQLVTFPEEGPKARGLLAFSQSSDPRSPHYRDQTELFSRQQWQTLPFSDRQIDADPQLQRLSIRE
Description: PvdQ acylase enzyme activity blockers – biochemical, fluorescence, plate reader and imaging, cherry-picks, dose response (AID 493231).

A short description of experiment [5]: mitochondrial function rescue without frataxin homolog – Friedreich's ataxia, plus single-dose screen, dose response (AID 1465).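 Further: yeast depleted of Yfh1p frataxin homolog grown on glycerol needing respiration; WST-1 tetrazolium dye reduction as measure of cellular dehydrogenase metabolic activity.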 It counts as functional.
Experiment [6] concerns the target 26S proteasome non-ATPase regulatory subunit 14 (Homo sapiens, UniProt O00487). Description: inhibition of proteasome subunit RPN11 – biochemical, fluorescence polarization, uHTS hits, confirmation (AID 602368). It counts as functional.
Experiment [7] addresses 72 kDa type IV collagenase (Homo sapiens, UniProt P08253). Description: Dose Response validation of uHTS RPN11 inhibitor hits using a MMP-2 Fluorescence assay. It counts as functional.
Experiment [8] has as its target Prothrombin (Bos taurus, UniProt P00735). Description: thrombin protease inhibitors – biochemical, fluorescence polarization, uHTS hits, dose response (AID 602369). The format is functional.
Experiment [9] addresses T2, Lytic switch protein BZLF1 (Epstein-Barr virus (strain B95-8) (HHV-4) (Human herpesvirus 4), UniProt P03206).
T2 sequence (P03206 whole entry): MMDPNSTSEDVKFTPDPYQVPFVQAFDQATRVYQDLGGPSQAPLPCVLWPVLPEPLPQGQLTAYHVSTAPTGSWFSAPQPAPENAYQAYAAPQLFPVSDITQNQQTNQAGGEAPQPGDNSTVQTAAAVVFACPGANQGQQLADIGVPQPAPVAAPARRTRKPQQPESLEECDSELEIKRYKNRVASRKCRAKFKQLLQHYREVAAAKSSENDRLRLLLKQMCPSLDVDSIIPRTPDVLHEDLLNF
Description: inhibition of BZLF1 ZTA DNA binding – biochemical, fluorescence polarization, Epstein-Barr virus, 1536-well, counter-screen for EBNA-1 inhibitor project, dose response (AID 2377).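 Further: fluorescence polarization of Cy5-labelled ZRE DNA probe bound by purified Zta.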 Also noted: species or system human gammaherpesvirus 4.

The target in experiment [10] is T3, Epstein-Barr nuclear antigen 1 (Epstein-Barr virus (strain B95-8) (HHV-4) (Human herpesvirus 4), UniProt P03211).
T3 sequence (P03211 whole entry): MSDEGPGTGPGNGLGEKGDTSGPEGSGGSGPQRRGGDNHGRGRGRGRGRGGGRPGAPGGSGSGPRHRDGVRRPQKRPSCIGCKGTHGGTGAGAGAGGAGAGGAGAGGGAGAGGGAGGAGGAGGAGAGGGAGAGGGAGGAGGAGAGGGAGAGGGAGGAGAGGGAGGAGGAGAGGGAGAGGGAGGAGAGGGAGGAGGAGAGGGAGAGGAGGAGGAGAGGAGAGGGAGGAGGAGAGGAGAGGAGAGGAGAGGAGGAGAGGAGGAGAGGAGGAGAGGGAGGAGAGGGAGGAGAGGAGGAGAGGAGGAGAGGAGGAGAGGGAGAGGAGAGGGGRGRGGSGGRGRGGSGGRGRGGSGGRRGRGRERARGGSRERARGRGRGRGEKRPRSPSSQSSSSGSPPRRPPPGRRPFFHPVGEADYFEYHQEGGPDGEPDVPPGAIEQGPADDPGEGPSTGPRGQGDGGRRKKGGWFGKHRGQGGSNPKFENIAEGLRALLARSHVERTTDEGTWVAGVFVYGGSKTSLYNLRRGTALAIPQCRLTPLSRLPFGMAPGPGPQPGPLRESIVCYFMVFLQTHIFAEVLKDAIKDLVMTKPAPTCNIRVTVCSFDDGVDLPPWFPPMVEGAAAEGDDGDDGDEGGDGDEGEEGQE
Description: inhibition of EBV nuclear antigen 1 DNA binding – biochemical, fluorescence polarization, 1536-well, dose response (AID 2381).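 Further: fluorescence polarization of a Cy5 DNA probe bound by EBNA-1 protein.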 Also noted: species or system human gammaherpesvirus 4.

The nature of experiment [11]: blockers of bursicon-stimulated LGR2 cAMP reporter – cell-based, HEK293, CRE-luciferase reporter, cherry pick, set 2, dose response (AID 743343).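 Further: transfected cells were stimulated with diluted bursicon conditioned medium after compound addition.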 The format is functional.
Experiment [12] has as its target Luciferin 4-monooxygenase (Photinus pyralis, UniProt P08659). Description: Counter Screen for Luciferase-based Assay Positives. [Related pubchem assays: 620, 618, 411 ].
Experiment [13] can be described thus: toxicity toward HepG2 liver cells – cell-based, plate reader, cherry-pick, antagonist series, cytotoxicity control, dose response (AID 743416). The format is functional.
The subject of the next experiment is HT-1080. Description: HT1080 cell viability loss – fluorescence readout (AID 620). As to conditions: Homo sapiens. It counts as functional, cell-based.
The nature of experiment [14]: blockade of melanocortin 4 receptor signaling – cell-based, plate reader, cherry pick, counter-screen for LGR2 antagonist project, dose response (AID 743444).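 Further: transfected HEK 293 cells stimulated with alpha-MSH peptide; potency of inhibitors of the alpha-MSH evoked signal.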 The format is functional.
In experiment [15] the target is T4, Short transient receptor potential channel 4 (Mus musculus, UniProt Q9QUQ5).
T4 sequence (Q9QUQ5 whole entry): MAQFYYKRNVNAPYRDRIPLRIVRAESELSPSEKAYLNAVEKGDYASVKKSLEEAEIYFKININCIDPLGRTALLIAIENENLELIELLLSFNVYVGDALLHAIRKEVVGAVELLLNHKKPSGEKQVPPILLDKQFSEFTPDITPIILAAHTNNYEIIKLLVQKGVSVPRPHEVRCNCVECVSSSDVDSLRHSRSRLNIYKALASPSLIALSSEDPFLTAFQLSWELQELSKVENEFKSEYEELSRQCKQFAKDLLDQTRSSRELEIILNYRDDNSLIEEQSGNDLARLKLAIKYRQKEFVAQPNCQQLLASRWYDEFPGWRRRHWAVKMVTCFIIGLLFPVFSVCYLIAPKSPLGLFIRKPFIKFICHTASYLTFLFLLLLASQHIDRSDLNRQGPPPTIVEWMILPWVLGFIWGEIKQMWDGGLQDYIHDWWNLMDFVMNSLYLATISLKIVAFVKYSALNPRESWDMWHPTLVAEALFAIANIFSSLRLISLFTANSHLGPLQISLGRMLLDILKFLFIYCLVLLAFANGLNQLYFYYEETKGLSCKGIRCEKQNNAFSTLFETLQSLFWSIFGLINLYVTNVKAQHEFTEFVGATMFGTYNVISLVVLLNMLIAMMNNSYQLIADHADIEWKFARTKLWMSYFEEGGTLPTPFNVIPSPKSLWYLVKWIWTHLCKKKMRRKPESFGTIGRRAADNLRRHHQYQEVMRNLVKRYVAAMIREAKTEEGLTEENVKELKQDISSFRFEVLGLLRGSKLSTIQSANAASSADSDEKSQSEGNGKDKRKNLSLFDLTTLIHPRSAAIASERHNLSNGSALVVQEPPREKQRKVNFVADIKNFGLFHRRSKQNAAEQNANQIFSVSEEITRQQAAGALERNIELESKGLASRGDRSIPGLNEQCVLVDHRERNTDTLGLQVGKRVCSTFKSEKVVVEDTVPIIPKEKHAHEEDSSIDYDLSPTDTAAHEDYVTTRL
Description: block of DAMGO-driven TRPC4 calcium entry – cell-based, HEK293 TRPC4/mu-opioid, Fluo-4 calcium, dose response (AID 434942).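 Further: potency of inhibitors blocking the TRPC4 calcium response.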 The format is functional.

Activity calls are given as the source filed them.

The results in this text go back to ChEMBL document CHEMBL1201862, “PubChem BioAssay data set” (2004).

Chain of Luciferin 4-monooxygenase (P08659 whole entry): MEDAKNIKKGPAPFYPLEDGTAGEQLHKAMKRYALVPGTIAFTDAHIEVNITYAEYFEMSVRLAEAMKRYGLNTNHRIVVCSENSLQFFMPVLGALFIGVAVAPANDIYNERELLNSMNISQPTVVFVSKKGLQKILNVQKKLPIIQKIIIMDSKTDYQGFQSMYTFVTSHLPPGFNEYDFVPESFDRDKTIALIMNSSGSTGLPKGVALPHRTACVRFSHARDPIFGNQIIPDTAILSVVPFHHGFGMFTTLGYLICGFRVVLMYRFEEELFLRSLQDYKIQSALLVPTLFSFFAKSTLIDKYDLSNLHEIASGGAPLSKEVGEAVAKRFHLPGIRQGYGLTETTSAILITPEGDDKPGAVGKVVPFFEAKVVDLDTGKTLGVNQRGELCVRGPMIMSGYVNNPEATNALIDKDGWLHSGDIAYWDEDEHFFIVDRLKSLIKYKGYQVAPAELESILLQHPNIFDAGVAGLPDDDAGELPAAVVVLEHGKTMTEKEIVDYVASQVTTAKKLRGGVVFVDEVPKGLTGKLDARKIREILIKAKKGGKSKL
Chain of 72 kDa type IV collagenase (P08253 whole entry): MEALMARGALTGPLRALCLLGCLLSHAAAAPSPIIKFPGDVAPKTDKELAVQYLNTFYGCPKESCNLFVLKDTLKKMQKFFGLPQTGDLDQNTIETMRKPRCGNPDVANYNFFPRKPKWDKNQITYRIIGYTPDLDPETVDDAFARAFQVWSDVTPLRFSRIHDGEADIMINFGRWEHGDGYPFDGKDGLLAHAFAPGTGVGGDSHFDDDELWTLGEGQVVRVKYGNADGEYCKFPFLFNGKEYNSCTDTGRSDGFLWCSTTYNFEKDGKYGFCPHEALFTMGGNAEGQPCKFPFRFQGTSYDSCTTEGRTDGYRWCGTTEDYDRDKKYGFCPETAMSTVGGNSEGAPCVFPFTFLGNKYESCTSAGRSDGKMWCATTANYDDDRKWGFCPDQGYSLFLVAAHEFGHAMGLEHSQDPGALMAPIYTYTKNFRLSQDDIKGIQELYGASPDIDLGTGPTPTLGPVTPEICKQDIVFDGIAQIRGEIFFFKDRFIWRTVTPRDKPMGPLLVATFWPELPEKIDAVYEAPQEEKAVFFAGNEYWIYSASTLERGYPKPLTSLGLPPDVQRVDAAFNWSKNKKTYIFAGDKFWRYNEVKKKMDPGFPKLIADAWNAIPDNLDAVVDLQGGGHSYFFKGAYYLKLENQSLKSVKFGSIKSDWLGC
Chain of 26S proteasome non-ATPase regulatory subunit 14 (O00487 whole entry): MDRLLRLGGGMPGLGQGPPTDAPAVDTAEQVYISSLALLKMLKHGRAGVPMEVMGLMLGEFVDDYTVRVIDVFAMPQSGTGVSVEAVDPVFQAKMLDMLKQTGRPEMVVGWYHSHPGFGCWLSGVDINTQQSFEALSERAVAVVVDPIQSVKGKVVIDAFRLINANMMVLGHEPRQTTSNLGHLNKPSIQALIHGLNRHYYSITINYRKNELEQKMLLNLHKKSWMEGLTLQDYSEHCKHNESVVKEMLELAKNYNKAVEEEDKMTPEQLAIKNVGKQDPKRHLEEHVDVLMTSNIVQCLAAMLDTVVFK

On to `Nc1nc(-c2ccco2)nn1C(=O)c1ccccc1Cl`, for which, at Prothrombin [1], the IC50 was 14 µM (active).
`COc1ccc(CC(=O)NCC2CCCN(Cc3ccc(SC)cc3)C2)cc1` (stereo not drawn): the EC50 in experiment [2] was > 60 µM (not active); in the experiment “cells” it was 0.034 µM (active); in [3] it was < 0.1 µM (active).
Regarding `COC(=O)c1cc(-c2cccc(OC)c2)on1`, the AC50 in experiment [4] was > 100 µM (inactive).
The same measure, in the same setting: as for `O=C1C=C(c2cccc(Cl)c2)C[C@@H](c2ccc(F)cc2)C1`, the figure is 9.81 µM (active).
On to `O=[N+]([O-])c1ccc(N2CCCCC2)s1`, for which the EC50 in experiment [5] was > 100 µM (active). For the same compound, the concentration for half-maximal inhibition (IC50) in [6] is 36.1 µM (active); in experiment [7], > 100 µM (inactive); on Prothrombin [8], 68 µM (active).
As for `Cc1ccc(NC(=O)CSc2ccc(-c3ccc4c(c3)OCO4)nn2)cc1F`, the IC50 was > 111 µM (not active) in experiment [9] and 4.44 µM (active) in experiment [10].
For `Oc1c2c(nc3cc(-c4ccc(F)cc4)nn13)CCCC2`, the AC50 was 7.51 µM (active) in [11], > 52 µM (inactive) in [13] and 6.58 µM (active) in [14]. The EC50 was 79.7 µM (active) in experiment [12] and 33.8 µM (active) in the experiment with HT-1080.
For the compound `CCn1c(=O)n(CCOC)c(=O)c2c3c(sc21)CCCC3`, the EC50 in experiment [15] was 1.19 µM (active).
